Test results reported in patent publication US7618989B2, “Tricyclic oxazolidone derivatives useful as PR modulators” (Wyeth, priority 2006, dated 2009).

System: not given
Experiment: not given
Details: not given

First: C[C@@H]1COC(=O)N1c1nc(-c2ccc(Br)cc2)cs1 [Example 1, (4R)-3-[4-(4-Bromophenyl)-1,3-thiazol-2-yl]-4-methyl-1,3-oxazolidin-2-one]
Second: CCC1(CC)COC(=O)N1c1nc(-c2ccc(C#N)cc2)cs1 [Example 2, 4-[2-(4,4-Diethyl-2-oxo-1,3-oxazolidin-3-yl)-1,3-thiazol-4-yl]benzonitrile]
The melting point of the first is higher: 197 to 199 °C for the first, 145 to 147 °C for the second.

`CC1(C)COC(=O)N1c1nc(-c2cccc(C#N)c2)cs1` [Example 3, 3-[2-(4,4-dimethyl-2-oxo-1,3-oxazolidin-3-yl)-1,3-thiazol-4-yl]benzonitrile] gave a melting point of 181 to 183 °C.

System: alkaline phosphatase activity in T47D cells
Experiment: Effects of progestins and antiprogestins on alkaline phosphatase activity in T47D cells
Format: cell-based
Details: Homo sapiens, antagonist mode, in the presence of 1 nM progesterone, 24 h incubation, read-out: T47D Alkaline Phosphatase Activity IC50 (nM) or % inhibition
Description: (1) Effects of Progestins and Antiprogestins on Alkaline Phosphatase Activity in T47D Cells.
• PURPOSE: To identify progestins or antiprogestins by determining a compound's effect on alkaline phosphatase activity in T47D cells. A. Reagents:
Culture medium: • DMEM:F12 (1:1) (GIBCO, BRL) supplemented with 5% (v/v) charcoal stripped fetal bovine serum (not heat-inactivated), 100 U/mL penicillin, 100 μg/mL streptomycin, and 2 mM the GlutaMax™ reagent (GIBCO, BRL).
Alkaline phosphatase assay buffer: • I. 0.1M Tris-HCl, pH 9.8, containing 0.2% the Triton® X-100 reagent • II. 0.1M Tris-HCl, pH 9.8, containing 4 mM p-nitrophenyl phosphate (Sigma). B. Cell Culture and Treatment:
Frozen T47D cells were thawed in a 37° C. water bath and diluted to 280,000 cells/mL in culture medium. To each well in a 96-well plate (Falcon, Becton Dickinson Labware), 180 μL of diluted cell suspension was added.
Twenty μL of reference or test compounds diluted in the culture medium was then added to each well. When testing for progestin antagonist activity, reference antiprogestins or test compounds were added in the presence of 1 nM progesterone. The cells were incubated at 37° C. in a 5% CO2/humidified atmosphere for 24 h.
NOTE: For high throughput screening, one concentration of each compound was tested at 0.3 μg/mL. Based on an average molecular weight of 300 g/mol for the compounds in the library, the concentration was approximately 1 μM. Subsequently, active compounds were tested in dose response assays to determine EC50 and IC50. C. Alkaline Phosphatase Enzyme Assay:
At the end of treatment, the medium was removed from the plate. Fifty μL of assay buffer I was added to each well. […]
For reference and test compounds, a dose response curve was generated for dose (X-axis) vs. the rate of enzyme reaction (slope) (Y-axis). […] EC50 or IC50 values were calculated from the retransformed values. […]
Progesterone and trimegestone were reference progestins and RU486 was the reference antiprogestin. All reference compounds were run in full dose response curves and the EC50 and IC50 values were calculated.

Compared with `CCC1(CC)COC(=O)N1c1nc2c(s1)CCc1cc(C#N)ccc1-2` [Example 5, 2-(4,4-Diethyl-2-oxo-1,3-oxazolidin-3-yl)-4,5-dihydronaphtho[1,2-d][1,3]thiazole-7-carbonitrile], `CC1(C)COC(=O)N1c1nc2c(s1)CCc1cc(C#N)ccc1-2` [Example 6, 2-(4,4-Dimethyl-2-oxo-1,3-oxazolidin-3-yl)-4,5-dihydronaphtho[1,2-d][1,3]thiazole-7-carbonitrile] is 5.6-fold higher in IC50: 5 nM for the first, 27.9 nM for the second.

With `CC1(C)COC(=O)N1c1nc2c(ccc3cc(C#N)ccc32)s1` [Example 7, 2-(4,4-Dimethyl-2-oxo-1,3-oxazolidin-3-yl)naphtho[1,2-d][1,3]thiazole-7carbonitrile] the IC50 was 100 nM.
